Data on one molecule can be found in patent publication KR20180000079A, “Kahweol을 포함하는 항비만 조성물” (경북대학교 산학협력단, priority 2016, dated 2018).

Common to all, as to format: cell-based, mouse
Data set [1] has as its system C/EBPα. The data set can be described thus: Western blot, C/EBPα protein expression in 3T3-L1 adipocytes. To be noted: 40 μM. A general note: Immunoblotting shows a protein as a band on a membrane.
The test system of data set [2] is 3T3-L1 adipocytes [3T3-L1 지방세포]. The data set can be described thus: Oil Red O staining: differentiation and lipid accumulation in 3T3-L1 cells.
In data set [3] the test system is adiponectin [아디포넥틴]. Briefly: RT-PCR, adiponectin mRNA expression in 3T3-L1 cells. To be noted: 40 μM.
For data set [4], the system named is PPARγ. Briefly: Western blot, PPARγ protein expression in 3T3-L1 adipocytes. The conditions noted are these: 40 μM.
For data set [5], the system named is 3T3-L1 adipocytes [3T3-L1 지방세포]. Briefly: Triglyceride (TG) quantification in 3T3-L1 cells (colorimetric kit).
For data set [6], the system named is adiponectin [아디포넥틴]. Briefly: Western blot, adiponectin protein expression in 3T3-L1 adipocytes. The conditions noted are these: 40 μM.
Data set [7] has as its system 3T3-L1 preadipocytes [3T3-L1 전구 지방세포]. The data set can be described thus: MTT assay, cytotoxicity in 3T3-L1 preadipocytes. To be noted: 3T3-L1 cells, 4 or 40 μM, 24 or 48 h.
For data set [8], the system named is C/EBPα. The data set can be described thus: RT-PCR, C/EBPα mRNA expression in 3T3-L1 cells. The conditions noted are these: 40 μM.
In data set [9] the test system is PPARγ. Briefly: RT-PCR, PPARγ mRNA expression in 3T3-L1 cells. The conditions noted are these: 40 μM.

`C[C@@]12C=Cc3occc3[C@H]1CC[C@@]13C[C@@H](CC[C@H]12)[C@@](O)(CO)C3` [Kahweol]: in the data set on C/EBPα [1], the C/EBPα protein expression result was “억제됨”. Besides, in data set [2] (40 μM, 8 days), the “differentiation of 3T3-L1 cells” value was “분화가 억제됨”. Moreover, the cell morphology result in [2] (40 μM, 8 days, similar to preadipocytes (Fig. 3A)) is reported as “소형 스핀들-형상 형태”. In addition, the “lipid accumulation inhibitory activity compared with positive control” value in [2] (3T3-L1 cells, 40 μM) is “양성 대조군 보다 우수한”. In [2] (3T3-L1 cells, Oil Red O), the intracellular lipid accumulation result is “억제함”. Also, the “adiponectin mRNA level” value with adiponectin [아디포넥틴] [3] is “감소”. For the same molecule, in the data set with PPARγ [4], the PPARγ protein expression entry is given as “억제됨”. Further, the TG formation entry in data set [5] is “억제함”. Moreover, the “TG formation inhibitory activity compared with positive control” value in data set [5] (40 μM) is on record as “양성 대조군 보다 우수한”. In addition, the inhibition at 40 µM in data set [5] (Mus musculus, 40 μM, read-out: decrease of intracellular TG level) is 43.3%. Also, the adiponectin protein expression result with adiponectin [아디포넥틴] [6] is “억제됨”. In addition, in data set [7], the cytotoxic effect entry is listed as “세포 독성 효과를 보이지 않았다”. Also, the “C/EBPα mRNA level” value in the data set with C/EBPα [8] is recorded as “현저히 감소”. For the same molecule, the “PPARγ mRNA level” value in the data set with PPARγ [9] was “현저히 감소”.
